Results from patent US7973147B2, “K04-0144 substance and a process for production thereof” (The Kitasato Institute, priority 2006, dated 2011).
Values after ≈ are worked out from the molar mass of the structure shown. “Also recorded” adds a separate entry of the source. Where two headings read alike, the source gives them in different places.

How the values were obtained:
[1] = system: clinical isolate of MRSA (K24 strain); assay: MRSA infectious model using silkworms; assay type: in vivo, silkworm; details: 25 mg/kg; 72 hours after the inoculation
Protocol: As an alternative method for in vivo MRSA infection model using animals, the infection system using silkworms has been reported (Kaito et al, Microbial Pathogenesis, 32: 183-190, 2002). Effect of K04-0144A substance was measured according to this method.
Test organism used was the clinical isolate of MRSA (K24 strain). The MRSA was cultured statically using LB-10 medium (DIFCO) at 37° C. for 18 hours, and a 50 μl of the cultured strain was inoculated into the hemolymph of silkworm, 5 instar, 2nd day, (about 2 g, Ehime sansyu eggs Co., Japan). K04-0144A substance was prepared to a solution of 1 mg/ml, and 50 μl of the solution were administered by using syringe to the dorsal vessel of 5 silkworms infected with MRSA (25 mg/kg). Effect of the K04-0144A substance was evaluated by comparing the survival rate between a group with administering the sample and a group without administering the sample during the raising period of 72 hours after the inoculation. […] Further, all silkworms administered with 50 μl of MRSA bacterial suspension died within 72 hours after the inoculation.

[2] = system: MRSA (Clinical isolate, the Kitasato Hospital, Japan); assay: Enhancing action of K04-0144D substance on antibiotic activities, broth microdilution method; assay type: cell-based, methicillin-resistant Staphylococcus aureus
[3] = system: MRSA N315 IR94 HR-1; assay: MIC, agar plate dilution method; assay type: cell-based, methicillin-resistant Staphylococcus aureus; details: Staphylococcus aureus, 20 h
Protocol: (§1) Assay of minimum inhibitory concentration (MIC) was performed according to the agar plate dilution method (Method of Japan Society of Chemotherapy, CHEMOTHERAPY 29, 76-79, 1981).
(§2) Test organisms used were 27 types of microorganisms including clinical isolates of methicillin-resistant Staphylococcus aureus. Each test organism was cultured in Mueller-Hinton broth (2.1% w/v) (DIFCO) at 37° C. for 20 hours, and the cultured cells were suspended to about 10^6 cell counts/ml in the same medium, then was used as the microbial suspension for inoculation. The prepared microbial suspension was smeared by using the microplanter on MHA medium (Mueller-Hinton broth 2.1% (w/v) and agar 1.5%) containing K04-0144A substance, K04-0144B substance or K04-0144C substance, each of which was subjected to two-fold stepwise dilution from 128 μg/ml. After culturing at 37° C. for 20 hours, MIC was determined by macroscopically confirming the growth of microorganisms. Vancomycin, arbekacin and linezolid were used as a comparative control.

[4] = system: MRSA 92-1191; assay: MIC, agar plate dilution method; assay type: cell-based, methicillin-resistant Staphylococcus aureus; details: Staphylococcus aureus
Protocol: as §1, §2

[5] = system: MRSA N315 IR94; assay: MIC, agar plate dilution method; assay type: cell-based, methicillin-resistant Staphylococcus aureus; details: Staphylococcus aureus, 20 h
Protocol: as §1, §2

[6] = system: MRSA 70; assay: MIC, agar plate dilution method; assay type: cell-based, methicillin-resistant Staphylococcus aureus; details: Staphylococcus aureus
Protocol: as §1, §2

[7] = system: P. mirabilis IFO3849; assay: MIC, agar plate dilution method; assay type: cell-based; details: Proteus mirabilis
Protocol: as §1, §2

[8] = system: S. aureus Smith; assay: MIC, agar plate dilution method; assay type: cell-based; details: Staphylococcus aureus
Protocol: as §1, §2

[9] = system: K. pneumoniae NCTN9632; assay: MIC, agar plate dilution method; assay type: cell-based; details: Klebsiella pneumoniae
Protocol: as §1, §2

[10] = system: E. faecalis ATCC21212; assay: MIC, agar plate dilution method; assay type: cell-based; details: Enterococcus faecalis
Protocol: as §1, §2

[11] = system: E. faecium NTCT12203(VanA); assay: MIC, agar plate dilution method; assay type: cell-based; details: Enterococcus faecium
Protocol: as §1, §2

[12] = system: C. freundii ATCC8090; assay: MIC, agar plate dilution method; assay type: cell-based; details: Citrobacter freundii
Protocol: as §1, §2

[13] = system: S. aureus 8325(pEP2104); assay: MIC, agar plate dilution method; assay type: cell-based; details: Staphylococcus aureus, 20 h
Protocol: as §1, §2

[14] = system: E. facecalis NTCT12201(VanA); assay: MIC, agar plate dilution method; assay type: cell-based
Protocol: as §1, §2

[15] = system: M. morganii IID Kono; assay: MIC, agar plate dilution method; assay type: cell-based; details: Morganella morganii
Protocol: as §1, §2

[16] = system: S. aureus FDA209P; assay: MIC, agar plate dilution method; assay type: cell-based; details: Staphylococcus aureus
Protocol: as §1, §2

[17] = system: S. epidermidis IFO12648; assay: MIC, agar plate dilution method; assay type: cell-based; details: Staphylococcus epidermidis
Protocol: as §1, §2

[18] = system: S. aureus ISP447; assay: MIC, agar plate dilution method; assay type: cell-based; details: Staphylococcus aureus
Protocol: as §1, §2

[19] = system: A. calcoaceticus IFO2552; assay: MIC, agar plate dilution method; assay type: cell-based; details: Acinetobacter calcoaceticus
Protocol: as §1, §2

[20] = system: E. coli NIHJ JC-2; assay: MIC, agar plate dilution method; assay type: cell-based; details: Escherichia coli
Protocol: as §1, §2

[21] = system: S. aureus 8325(pMS97); assay: MIC, agar plate dilution method; assay type: cell-based; details: Staphylococcus aureus, 20 h
Protocol: as §1, §2

[22] = system: E. aerogenes NCTC10006; assay: MIC, agar plate dilution method; assay type: cell-based; details: Klebsiella aerogenes
Protocol: as §1, §2

[23] = system: P. aeruginosa 46001; assay: MIC, agar plate dilution method; assay type: cell-based
Protocol: as §1, §2

[24] = system: S. aureus ISP217; assay: MIC, agar plate dilution method; assay type: cell-based; details: Staphylococcus aureus
Protocol: as §1, §2

[25] = system: M. luteus ATCC9341; assay: MIC, agar plate dilution method; assay type: cell-based; details: Micrococcus luteus
Protocol: as §1, §2

[26] = system: E. cloacae IFO13535; assay: MIC, agar plate dilution method; assay type: cell-based; details: Enterobacter cloacae
Protocol: as §1, §2

[27] = system: S. marcescens IFO12648; assay: MIC, agar plate dilution method; assay type: cell-based; details: Serratia marcescens
Protocol: as §1, §2

[28] = system: P. vulgaris OX-19; assay: MIC, agar plate dilution method; assay type: cell-based; details: Proteus vulgaris
Protocol: as §1, §2

[29] = system: P. aeruginosa E-2; assay: MIC, agar plate dilution method; assay type: cell-based; details: Pseudomonas aeruginosa
Protocol: as §1, §2

[30] = Solubility in solvent; assay type: physicochemical; details: listed as K04-0144C substance

CN[C@H](CC(C)C)C(=O)N[C@H]1C(=O)N[C@@H](CC(N)=O)C(=O)N[C@H]2C(=O)N[C@H]3C(=O)N[C@H](C(=O)N[C@H](C(=O)O)c4cc(O)cc(O)c4-c4cc3ccc4O)[C@H](O)c3ccc(c(Cl)c3)Oc3cc2cc(c3O[C@@H]2O[C@H](CO)[C@@H](O)[C@H](O)[C@H]2O[C@H]2C[C@](C)(N)[C@H](O)[C@H](C)O2)Oc2ccc(cc2Cl)[C@H]1O [vancomycin, reference compound]
survival of silkworms infected with MRSA [1]: survived after 72 hours of the inoculation | enhancing action of K04-0144D substance on the antibiotic's activity ([2]; K04-0144D substance 16 μg/ml): no enhancing action | Ratio (−/+K04-0144D) ([2]; MIC alone / MIC with K04-0144D substance 16 μg/ml): 1 | MIC ([2]; Staphylococcus aureus, MRSA, read-out: Minimum Inhibitory Concentration (−)): 1 µg/mL | MIC [3]: 0.5 µg/mL (≈ 0.345 µM) | MIC ([4]; MRSA, 20 h): 1 µg/mL (≈ 0.69 µM) | MIC [5]: 0.5 µg/mL (≈ 0.345 µM) | MIC ([6]; MRSA, 20 h): 0.5 µg/mL (≈ 0.345 µM) | MIC ([7]; IFO3849, 20 h): > 32 µg/mL | MIC ([8]; 20 h): 1 µg/mL (≈ 0.69 µM) | MIC ([9]; NCTN9632, 20 h): > 32 µg/mL | MIC ([10]; ATCC21212, 20 h): 4 µg/mL (≈ 2.76 µM) | MIC ([11]; 20 h): > 32 µg/mL | MIC ([12]; ATCC8090, 20 h): > 32 µg/mL | MIC [13]: 2 µg/mL (≈ 1.38 µM) | MIC ([14]; 20 h): > 32 µg/mL | MIC ([15]; 20 h): > 32 µg/mL | MIC ([16]; FDA209P, 20 h): 1 µg/mL (≈ 0.69 µM) | MIC ([17]; IFO12648, 20 h): 1 µg/mL (≈ 0.69 µM) | MIC ([18]; ISP447, 20 h): 1 µg/mL (≈ 0.69 µM) | MIC ([19]; IFO2552, 20 h): > 32 µg/mL | MIC ([20]; NIHJJC2, 20 h): > 32 µg/mL | MIC [21]: 1 µg/mL (≈ 0.69 µM) | MIC ([22]; NCTC10006, 20 h): > 32 µg/mL | MIC ([23]; Pseudomonas aeruginosa, 46001, 20 h): > 32 µg/mL | MIC ([24]; ISP217, 20 h): 1 µg/mL (≈ 0.69 µM) | MIC ([25]; ATCC9341, 20 h): 1 µg/mL (≈ 0.69 µM) | MIC ([26]; IFO13535, 20 h): > 32 µg/mL | MIC ([27]; IFO12648, 20 h): > 32 µg/mL | MIC ([28]; OX19, 20 h): > 32 µg/mL | MIC ([29]; E2, 20 h): > 32 µg/mL

C=C(C/C=C(\C)CCC=C(C)C)CCC(C)(C)/C=C/CC/C(C)=C\COC(COP(=O)(O)OC1OC(C(N)=O)C(C)(O)C(OC(N)=O)C1OC1OC(CO)C(OC2OC(C)C(OC3OC(C(N)=O)C(O)C(O)C3O)C(O)C2NC(C)=O)C(O)C1NC(C)=O)C(=O)O (centres unmarked) [K04-0144C]
MIC [3]: ≤ 0.25 µg/mL | MIC ([4]; MRSA 92-1191, 37° C., 20 hours, read-out: MIC): 0.5 µg/mL (≈ 0.378 µM) | MIC [5]: ≤ 0.25 µg/mL | MIC ([6]; MRSA 70, 37° C., 20 hours, read-out: MIC): ≤ 0.25 µg/mL | MIC ([7]; P. mirabilis IFO3849, 37° C., 20 hours, read-out: MIC): 8 µg/mL (≈ 6.04 µM) | MIC ([8]; S. aureus Smith, 37° C., 20 hours, read-out: MIC): 1 µg/mL (≈ 0.755 µM) | MIC ([9]; K. pneumoniae NCTN9632, 37° C., 20 hours, read-out: MIC): 8 µg/mL (≈ 6.04 µM) | MIC ([10]; E. faecalis ATCC21212, 37° C., 20 hours, read-out: MIC): 0.5 µg/mL (≈ 0.378 µM) | MIC ([11]; E. faecium NTCT12203(VanA), 37° C., 20 hours, read-out: MIC): 64 µg/mL (≈ 48.3 µM) | MIC ([12]; C. freundii ATCC8090, 37° C., 20 hours, read-out: MIC): 64 µg/mL (≈ 48.3 µM) | MIC [13]: 0.5 µg/mL (≈ 0.378 µM) | MIC ([14]; E. facecalis NTCT12201(VanA), 37° C., 20 hours, read-out: MIC): 0.5 µg/mL (≈ 0.378 µM) | MIC ([15]; M. morganii IID Kono, 37° C., 20 hours, read-out: MIC): 32 µg/mL (≈ 24.2 µM) | MIC ([16]; S. aureus FDA209P, 37° C., 20 hours, read-out: MIC): 1 µg/mL (≈ 0.755 µM) | MIC ([17]; S. epidermidis IFO12648, 37° C., 20 hours, read-out: MIC): 1 µg/mL (≈ 0.755 µM) | MIC ([18]; S. aureus ISP447, 37° C., 20 hours, read-out: MIC): ≤ 0.25 µg/mL | MIC ([19]; A. calcoaceticus IFO2552, 37° C., 20 hours, read-out: MIC): 8 µg/mL (≈ 6.04 µM) | MIC ([20]; NIHJJC2, E. coli NIHJ JC-2, 37° C., 20 hours, read-out: MIC): 8 µg/mL (≈ 6.04 µM) | MIC [21]: 0.5 µg/mL (≈ 0.378 µM) | MIC ([22]; E. aerogenes NCTC10006, 37° C., 20 hours, read-out: MIC): 32 µg/mL (≈ 24.2 µM) | MIC ([23]; Pseudomonas aeruginosa, P. aeruginosa 46001, 37° C., 20 hours, read-out: MIC): 32 µg/mL (≈ 24.2 µM) | MIC ([24]; S. aureus ISP217, 37° C., 20 hours, read-out: MIC): ≤ 0.25 µg/mL | MIC ([25]; M. luteus ATCC9341, 37° C., 20 hours, read-out: MIC): > 128 µg/mL | MIC ([26]; E. cloacae IFO13535, 37° C., 20 hours, read-out: MIC): 32 µg/mL (≈ 24.2 µM) | MIC ([27]; S. marcescens IFO12648, 37° C., 20 hours, read-out: MIC): 32 µg/mL (≈ 24.2 µM) | MIC ([28]; OX19, P. vulgaris OX-19, 37° C., 20 hours, read-out: MIC): 4 µg/mL (≈ 3.02 µM) | MIC ([29]; E2, P. aeruginosa E-2, 37° C., 20 hours, read-out: MIC): 32 µg/mL (≈ 24.2 µM) | Solubility in solvent [30]: Soluble in water, methanol and dimethyl sulfoxide; also recorded: Insoluble in acetone, chloroform and n-hexane
